Assay results published in patent publication US20130273181A1, “METHODS AND COMPOSITIONS FOR DIAGNOSING AND TREATING MUSCLE MYOPATHY DISORDERS” (The Regents of the University of Colorado, a body Corporate, priority 2012, published 2013).
“Also recorded” adds a separate entry of the source. Where two headings read alike, the source gives them in different places.

Tests used:
Assay type in all cases: cell-based, mouse
[1] = system: Ryr1^m1Nisw/m1Nisw E18.5 diaphragm muscle; assay: EMG recordings / contractility of explanted E18.5 diaphragm muscle; conditions: for Minutes to Contraction (Stand. Dev): EMG recordings, electrically stimulated; for Minutes to Contraction (Stand. Dev) / contractions / contractility (in words): PMA 50 nM, AICAR 500 μM; for contractions / contractility (in words): bath application, KCl 6 mM, BaCl2 100 μM, potassium gluconate 6 mM, BayK8644 100 nM
Procedure: (§1) In other methods, whether increasing the excitability in E18.5 Ryr1^m1Nisw/m1Nisw whole diaphragm muscle could force the DHPR-RyR1 complex to initiate contractility was examined. In one exemplary method, electromyography recordings (EMG) was performed to examine whether whole muscle in vitro was sensitive to potassium-dependent depolarization by adding potassium to the bath to depolarize the membrane. […] Potassium induced excitability can also be triggered by blocking inward rectifier potassium channels.
(§2) DHPR and RyR1 interact through orthograde and retrograde signaling, but the Ryr1^m1Nisw/m1Nisw mutation is not located within this interaction region. Orthograde signaling from DHPR opens the RyR1 channel in the SR, while retrograde signaling from RyR1 controls the gating of DHPR.
(§3) FIG. 2g represents an exemplary graph of contractility of E18.5 diaphragm muscle from Ryr1^+/+, Ryr1^m1Nisw/m1Nisw, or RyR1^tm1Alle/tm1Alle embryos. After equilibration, all samples were bathed first in 6 mM KCl, followed by wash out and then addition of 100 μm BaCl as indicated. […] FIG. 2h provides an exemplary graph of contractility of E18.5 diaphragm muscle from Ryr1^+/+, Ryr1^m1Nisw/m1Nisw and RyR1^tm1Alle/tm1Alle embryos in 6 mM potassium gluconate (n=4).
(§4) In myotubes, the application of ryanodine at levels that activate RyR increases ERK1/2 protein levels and c-Fos and c-Jun transcript levels. ERK1/2 phosphorylates the most abundant potassium transport protein, Na^+, K^+-ATPase, which, in turn, induces an increase in ion transport. Na^+, K^+-ATPase is essential for maintaining the equilibrium potential of Na^+ and K^+ at the membrane. In one exemplary method, western blot was performed to analyze certain protein levels in Ryr1^m1Nisw/m1Nisw and Ryr1^tm1Alle/tm1Alle embryonic muscle extracts with beta-tubulin served as a loading control. […] In another exemplary method, Phorbol-12-myristate-13-acetate (PMA 50 nM), an activator of ERK1/2 phosphorylation, was applied to the bath of in vitro Ryr1^m1Nisw/m1Nisw diaphragm preparation to increase the phosphorylation of Na^+, K^+-ATPase.
(§5) In certain exemplary methods, restoration of membrane potential and muscle contractions by pharmacological stimulation was tested. First, effect of stimulation of AMPK activity on restoring the resting membrane potential of the mutant diaphragm muscle was determined. An AMPK activator, e.g. 5-aminoimidazole-4-carboxamide-1-β-d-ribofuranoside (AICAR, 500 μM), was bath applied to explanted Ryr1^m1Nisw/m1Nisw E18.5 diaphragm muscles. […] Next, other pharmacological stimuli were examined. […] Glibenclamide (2 μM) and 5-hydrodecanoic acid (5HA, 200 μM) selectively bind to SUR1 and SUR2 to block ATP-sensitive K^+ channels.

[2] = system: Ryr1^tm1Alle/tm1Alle diaphragm muscle; assay: Contractility of explanted E18.5 diaphragm muscle, Ryr1 null; conditions: same bath concentrations
Procedure: as §1, §2, §3, §4, §5

[3] = system: Ryr1^m1Nisw/m1Nisw diaphragm muscle; assay: Sharp electrode recordings of resting membrane potential of diaphragm muscle; conditions: for resting membrane potential (in words): Glibenclamide 2 μM, AICAR 500 μM; for resting membrane potential (in words) / resting membrane potential after treatment: PMA 50 nM; for shift in membrane potential / resting membrane potential after treatment: sharp electrode; for shift in membrane potential: PMA 50 nM vs ethanol, AICAR 500 μM n=18; for resting membrane potential after treatment: BaCl2 n=27
Procedure: Therefore, in some exemplary methods, whether voltage dependent orthograde signaling through the DHPR-RyR1 complex could be initiated through changes in membrane potential was first assessed.
as §1, §4, §5

soleus muscle = assay: Steady-state membrane potential (VREST) of two month old soleus muscle at varied extracellular potassium; conditions: for VREST after drug addition: control 0.6% potassium diet, independent of extracellular potassium
[4] = RyR1^m1Nisw/+ soleus muscle, bumetanide 75 μM, BaCl2 50 μM
[5] = RyR1^m1Nisw/+ soleus muscle, bumetanide 75 μM, BaCl2 50 μM, Glibenclamide 2 μM, or chronic 5.2% potassium diet

## CCCCCC(O)CCCC(=O)O (stereo not shown) [5HA, 5-hydrodecanoic acid]
[1]; Glibenclamide 2 μM, 5HA 200 μM
  Minutes to Contraction (Stand. Dev): 106 (52) Minutes
  contractions / contractility (in words): rescued
[1]; Glibenclamide 2 μM, 5HA 200 μM, n=6 for each
  bath application time after which contractions were elicited: 2 h
[1]; after 1 hour bath application, n=6 for each
  explants showing contractions: 50%

## NC(=O)c1ncn([C@@H]2O[C@H](CO)[C@@H](O)[C@H]2O)c1N [AICAR, 5-aminoimidazole-4-carboxamide-1-β-d-ribofuranoside]
[1]; Glibenclamide 2 μM, 5HA 200 μM
  Minutes to Contraction (Stand. Dev): None
  contractions / contractility (in words): unable to initiate contractions
[2]
  contractions / contractility (in words): unable to initiate contractions
[3]
  resting membrane potential (in words): restore the mutant resting membrane potential to normal levels
  shift in membrane potential: −10.4+/−3.9 mV

## [Ba+2].[Cl-].[Cl-] [BaCl2]
[1]; Glibenclamide 2 μM, 5HA 200 μM
  contractions / contractility (in words): induced stimulated bursts of activity and contractions
[1]; Glibenclamide 2 μM, 5HA 200 μM, listed as BaCl
  contractions / contractility (in words): rescued
Soleus muscle
  VREST phase (in words): driven to phase 2
Soleus muscle; [4]
  VREST after drug addition: −91.7+/−3.8 mV
Soleus muscle; [5]
  VREST phase (in words): driven to phase 2
[2]; listed as BaCl
  contractions / contractility (in words): failed to contract
[3]
  resting membrane potential after treatment: −68.5 mV

## COC(=O)C1=C(C)NC(C)=C([N+](=O)[O-])C1c1ccccc1C(F)(F)F (stereo not shown) [BayK8644]
[1]; Glibenclamide 2 μM, 5HA 200 μM
  contractions / contractility (in words): induced contractions within minutes
[2]
  contractions / contractility (in words): no contractions occurred

## [Cl-].[K+] [KCl]
[1]; Glibenclamide 2 μM, 5HA 200 μM
  contractions / contractility (in words): induced bursts of electrical activity and contractions; also recorded: rescued
[2]
  contractions / contractility (in words): failed to contract

## CCCCCCCCCCCCCC(=O)O[C@@H]1[C@@H](C)[C@@]2(O)[C@@H](C=C(CO)C[C@]3(O)C(=O)C(C)=C[C@@H]23)[C@@H]2C(C)(C)[C@]12OC(C)=O [PMA, Phorbol-12-myristate-13-acetate]
[1]
  time to contraction after addition: ≤ 5 min
[1]; Glibenclamide 2 μM, 5HA 200 μM
  Minutes to Contraction (Stand. Dev): 4 (2) Minutes
  contractions / contractility (in words): strongly elicited contractions
[2]
  contractions / contractility (in words): no effect
[3]
  resting membrane potential (in words): normalized the membrane potential
  resting membrane potential after treatment: −67.7 mV
  shift in membrane potential: −18.3+/−5.3 mV

## CCCCNc1cc(C(=O)O)cc(S(N)(=O)=O)c1Oc1ccccc1 [bumetanide]
Soleus muscle; [4]
  VREST after drug addition: −92.3+/−4.8 mV
Soleus muscle; [5]
  VREST phase (in words): driven to phase 1
Soleus muscle; wild type muscle, low extracellular potassium / Tetanus, bumetanide 75 μM, BaCl2 50 μM, Glibenclamide 2 μM
  VREST phase (in words): driven to phase 1

## O=C([O-])[C@H](O)[C@@H](O)[C@H](O)[C@H](O)CO.[K+] [potassium gluconate]
[1]; Glibenclamide 2 μM, 5HA 200 μM
  contractions / contractility (in words): Contractions also transpired
